The conditions of this data set: buffer; pH 7.4; 6.0 h; 150.0 µM.

Converted amounts (≈) assume the structure as drawn.

One may read the solubility (kinetic) as solubility judged after dilution from a stock solution rather than from solid.

Compound `CCCc1ccc(C(=O)NC(=O)c2ccccc2O)cc1` registered a kinetic solubility of 1.6 µg/mL (≈ 5.65 µM).
Under `Cc1cnc(N2CCC(C(N)=O)CC2)nc1-c1cccc(N(C)C)c1` stands above 50 µg/mL; under `c1ccc(-c2cc(Nc3nc(-c4ccncc4)nc4ccccc34)n[nH]2)cc1`, below 1 µg/mL.
Under `COc1ccc(C2=Nc3ccc(C)cc3C(c3ccccc3)N2CC(=O)NN)cc1` (centres undefined) stands above 59 µg/mL.
Under `COc1ccc(CCNc2ncnc3onc(C)c23)c(OC)c1` stands 9.08 µg/mL (≈ 28.9 µM).
For the compound `COc1ccc(O)c(CNc2ccc(S(=O)(=O)Nc3nccs3)cc2)c1`, the solubility (kinetic) was above 58 µg/mL.
Under `COc1cccc(CNc2ccc(C(=O)Nc3nccs3)cc2)c1O` stands below 1 µg/mL.
The figure for `CCOC(=O)c1ccc(-n2cnc3cc(C(=O)N4CCCCC4)ccc32)cc1` is above 56 µg/mL; for `O=C(Nc1ccc(S(=O)(=O)Nc2nccs2)cc1)c1ccc2ccccc2c1` it is below 1 µg/mL; for `Cc1ccc(S(=O)(=O)Nc2cnccc2C(=O)Nc2nc(-c3ccc4c(c3)CCCC4)cs2)cc1` it is below 1 µg/mL.
`OCc1ccc(-c2ccc(-c3ccc(CO)s3)o2)s1` came in with a solubility (kinetic) above 43 µg/mL.
Under `Nc1ccc(-c2cccc3c(=O)cc(N4CCOCC4)oc23)cc1` stands above 48 µg/mL.
Under `Cc1cccc(-n2ncc3c2CCCC3NC(=O)c2c(F)ccc(F)c2F)c1C` (centres undefined) stands 7.25 µg/mL (≈ 18.1 µM).
The figure for `CC(=O)Nc1cccc(-c2nc(-c3c(C)noc3C)cc3c2cc(-c2ccccc2)n3C)c1` is below 1 µg/mL.
`CO[C@@H]1/C=C\O[C@@]2(C)Oc3c(C)c(O)c4c(c3C2=O)C(=N[C@H]2CC[C@H](O)O[C@@H]2C)C=C(NC(=O)/C(C)=C\C(=O)[C@@H]2C[C@@H]2[C@@H](O)[C@H](C)[C@@H](O)[C@H](C)[C@H](OC(C)=O)[C@@H]1C)C4=O` registered a solubility (kinetic) of 32.3 µg/mL (≈ 39.3 µM).
The figure for `O=C(O)CNC(=O)c1c(O)c2ccccc2n(Cc2ccccc2)c1=O` is above 52 µg/mL; for `CCOc1ccc(CCNC(=O)c2cc3cnccc3n2Cc2cccc(C)c2)cc1OCC` it is above 68 µg/mL; for `O=C1CCc2cc(S(=O)(=O)Nc3ccc(F)c(Cl)c3)c(F)cc2N1` it is 13.4 µg/mL (≈ 35.9 µM).
Under `CCCSc1nc(N[C@@H]2C[C@H]2c2ccc(F)c(F)c2)c2nnn([C@@H]3C[C@H](OCCO)[C@@H](O)[C@H]3O)c2n1` stands below 1 µg/mL.
Under `COc1cccc(S(=O)(=O)Nc2cnccc2C(=O)Nc2nc(-c3ccccc3)cs2)c1` stands 53.9 µg/mL (≈ 116 µM).
`CNc1nc2c(s1)C(c1ccccc1F)CC(=O)N2` (centres undefined) returned a solubility (kinetic) of 13.7 µg/mL (≈ 49.3 µM).
With `COc1cc2c3cc1Oc1c(O)c(OC)cc4c1[C@@H](Cc1ccc(cc1)Oc1cc(ccc1O)C[C@H]3N(C)CC2)N(C)CC4`, the kinetic solubility is above 88 µg/mL.
Under `Cc1sc(NC(=O)Cc2ccc3c(c2)OCO3)nc1-c1ccc2c(c1)CCN2` stands below 1 µg/mL.
Under `Cc1ccccc1N(C)C1CN([S+](=O)([O-])c2cccc(C(F)(F)F)c2)C1` stands 1.42 µg/mL (≈ 3.7 µM); under `Cc1ccc(NS(=O)(=O)c2ccc3[nH]c4c(c3c2)CCCCCC4)cc1`, below 1 µg/mL; under `COCCNC(=O)c1ccc(-c2ncc3cnc(-c4cccc(F)c4)cn23)cc1`, 28.1 µg/mL (≈ 71.9 µM).
The figure for `Fc1ccc(Nc2nc(C3=CCNCC3)nc3ccccc23)cc1F` is above 50 µg/mL.
In turn, `Cc1ccc(S(=O)(=O)Nc2cc3c(cc2C(=O)Nc2nc(-c4ccccc4)cs2)OCO3)cc1` had a kinetic solubility below 1 µg/mL.
The figure for `COc1ccc(-c2csc(NC(=O)c3ccncc3NS(=O)(=O)c3ccc(C)cc3)n2)cc1` is 54.8 µg/mL (≈ 114 µM).
Under `COc1ccc(C(=O)NC2CCN(c3cnn(CC4CC4)c(=O)c3)CC2)c(OC)n1` stands above 41 µg/mL; under `Cc1noc(C)c1-c1ccc2ncnc(NCc3cccc(Cl)c3)c2c1`, below 1 µg/mL.
Under `COc1ccc(C2c3[nH]c4ccc(OC)cc4c3CCN2C(=O)Nc2ccccc2)cc1` (centres undefined) stands 1.06 µg/mL (≈ 2.48 µM); under `CC1Cc2cc(S(=O)(=O)NCc3ccc(N(C)C)cc3)ccc2N1C(=O)C1CCC1` (centres undefined), 3.08 µg/mL (≈ 7.2 µM); under `Cc1ccc(-c2cc(C(=O)NCc3cnn(C)c3C)c3cc(Br)ccc3n2)cc1`, below 1 µg/mL.
`O=C(N/N=C/c1ccc(O)c(O)c1)c1cc2ccccc2cc1O`: the solubility (kinetic) worked out at 18.2 µg/mL (≈ 56.5 µM).
The figure for `O=C1Nc2ccccc2/C1=C/c1cccc(C(=O)O)c1` is above 39 µg/mL; for `CC(=O)c1cccc(-c2csc3ncnc(Sc4nnnn4C)c23)c1` it is 14.1 µg/mL (≈ 38.2 µM).
With `Fc1cc(Nc2nc(-c3ccncc3)nc3ccccc23)ccc1-c1cc(F)c(F)c(F)c1`, the solubility (kinetic) was below 1 µg/mL.
The figure for `Cn1nnnc1Sc1ncnc2scc(-c3cccc(S(C)(=O)=O)c3)c12` is 44.8 µg/mL (≈ 111 µM); for `COc1cc(-c2nc(Nc3ccc(F)c(F)c3)c3ccccc3n2)c(F)cn1` it is below 1 µg/mL.
The figure for `Cc1ccc(-c2cc(C(=O)Nc3ccc(S(=O)(=O)Nc4ccc(C#N)cc4)cc3)c3ccccc3n2)cc1C` is 3.79 µg/mL (≈ 7.12 µM); for `Cc1ccc(S(=O)(=O)Nc2ccccc2C(=O)Nc2ccc(-c3ccccc3)cn2)cc1` it is below 1 µg/mL; for `CCN1CCN(CCCNC(=O)c2ccc3c(c2)sc2nc(-c4ccc(OC)cc4)cn23)CC1` it is above 71 µg/mL.
The figure for `Oc1cccc(-c2nc(N3CCOCC3)c3oc4ncccc4c3n2)c1` is below 1 µg/mL.
As for `Cc1cc(-c2nnc3n2CCCCC3)c(C)n1-c1ccc(C(C)(C)C)cc1`, the kinetic solubility worked out at 20.9 µg/mL (≈ 57.6 µM).
Under `COc1cc(OC)cc(-c2csc(N3CCC(C(N)=O)CC3)n2)c1` stands above 51 µg/mL; under `CN1CCN(CCCN2c3ccccc3Sc3ccc(S(=O)(=O)N(C)C)cc32)CC1.CS(=O)(=O)O.CS(=O)(=O)O`, above 66 µg/mL; under `NCC(=O)Nc1cncc(-c2nn3c(=O)cc(N4CCNCC4)nc3s2)c1`, above 57 µg/mL.
Under `OCc1ccc(-c2cc3c(ccn3Cc3cccnc3)c(C3=CCOCC3)n2)cc1` stands 54.9 µg/mL (≈ 138 µM); under `CCn1c(C(=O)N2CCCC(C(=O)NCCc3ccc(C)cc3)C2)cc2sccc21` (centres undefined), 17.1 µg/mL (≈ 40.3 µM).
Under `CC(C)c1ccc(S(=O)(=O)c2cnc(SCC(=O)Nc3ccc4c(c3)OCCO4)[nH]c2=O)cc1` stands above 74 µg/mL.
In turn, `Cc1nn2c(c1-c1ccccc1-c1ccccc1)N(CC1CC1)CCC2` came in with a kinetic solubility of 1.56 µg/mL (≈ 4.53 µM).
The figure for `Cc1ccc(-c2cc(C(=O)Nc3cccc(S(=O)(=O)Nc4nccs4)c3)c3ccccc3n2)cc1C` is below 1 µg/mL.
As to `Cc1cc(C)nc(NS(=O)(=O)c2ccc(NC(=S)NC(=O)COc3ccc(Br)cc3Cl)cc2)n1`, the solubility (kinetic) is above 100 µg/mL.
As for `CC(=O)N1CCC2(CCCN(c3ccc(-c4ccccc4)cc3)C2)CC1`, the kinetic solubility is below 1 µg/mL.
Under `O=C(Nc1ncc(Cc2ccc(C(F)(F)F)cc2)s1)c1ccc(-c2ccccc2[N+](=O)[O-])o1` stands below 1 µg/mL; under `O=c1[nH]c(C2CCN(S(=O)(=O)c3ccc4c(c3)OCCO4)CC2)nc2c1nnn2Cc1c(F)cccc1Cl`, below 1 µg/mL; under `Cc1csc2nc(-c3cccc(NC(=O)c4cccc(F)c4)c3)cn12`, below 1 µg/mL.
Under `COc1cccc(-c2csc(NC(=O)c3ccncc3NS(=O)(=O)c3ccc(C)cc3)n2)c1` stands above 71 µg/mL.
The figure for `COc1ccc(-n2nc(C3CCN([S+](=O)([O-])c4c(C)noc4C)CC3)[nH]c2=O)cc1` is below 1 µg/mL.
For `Cc1ccccc1C(C(=O)NC1CCCC1)N(C(=O)Cn1cnc2ccccc21)c1cccc(F)c1` (centres undefined), the kinetic solubility turned out to be 12.2 µg/mL (≈ 25.1 µM).
Turning to `NC(=O)COc1ccc(C2CC(=O)Nc3n[nH]c(Nc4ccccc4)c32)cc1` (centres undefined), the kinetic solubility is 41.7 µg/mL (≈ 110 µM).
The figure for `COC(=O)c1cc(Cl)ccc1NC(=O)CSc1ncc(S(=O)(=O)c2ccc(Br)cc2)c(=O)[nH]1` is 59.1 µg/mL (≈ 103 µM); for `O=c1[nH]cnc2nc[nH]c12` it is 8.8 µg/mL (≈ 64.7 µM); for `CCOc1ccc(CCNC(=O)c2cc3sccc3n2CCN2CCOCC2)cc1OCC` it is 52.4 µg/mL (≈ 111 µM).
The compound `Cc1cccc(C)c1Nc1c(-c2cccs2)nc2ncccn12` displayed a solubility (kinetic) of 3.44 µg/mL (≈ 10.8 µM).
The figure for `Cc1ccc(S(=O)(=O)Nc2cc(F)ccc2C(=O)Nc2nc(-c3ccccc3)cs2)cc1` is below 1 µg/mL; for `NC(=O)C1CCN(c2nc(-c3cccc([N+](=O)[O-])c3)cs2)CC1` it is 28.4 µg/mL (≈ 85.3 µM).
Compound `O=C(Nc1ccc(S(=O)(=O)Nc2nccs2)cc1)c1cccnc1` had a solubility (kinetic) above 53 µg/mL.
Under `COc1cc(C(=O)N2CCN(c3cc(Cl)ccc3Cl)CC2)cc(OC)c1OC` stands below 1 µg/mL; under `CCOC(=O)c1ccc(N2C(=O)c3n[nH]c(-c4cccs4)c3C2c2ccc(OCC)cc2)cc1` (centres undefined), below 1 µg/mL.
Under `Cc1ccc(S(=O)(=O)Nc2ccc(Cl)cc2C(=O)Nc2nc(-c3ccccc3)cs2)cc1` stands below 1 µg/mL.
Under `FC(F)(F)c1cccc(N2CCN(C(=S)Nc3nccc4ccccc34)CC2)c1` stands below 1 µg/mL; under `CC(=O)c1c(C)[nH]c(C(=O)Nc2cccc([S+](=O)([O-])Nc3c(C)cccc3C)c2)c1C`, below 1 µg/mL; under `CCN1C(=O)c2ccccc2[S@](=O)c2ccc(C(=O)NCc3ccc(F)cc3)cc21`, 18.1 µg/mL (≈ 42.9 µM).
In the case of `COc1ccc(-n2nc(C)c([C@@H]3C=C[C@@H](NCc4ccc(F)cc4)C3)c2C)cc1`, the kinetic solubility worked out at 42 µg/mL (≈ 107 µM).
The figure for `CCCCCN(CCC12CC3CC(CC(C3)C1)C2)C(=O)NCCCc1ccncc1` is below 1 µg/mL; for `Cc1ccc(S(=O)(=O)Nc2cc(Br)ccc2C(=O)Nc2nc(-c3ccccc3)cs2)cc1` it is below 1 µg/mL.
Under `NC(=O)c1cnc(N[C@@H]2CCCC[C@@H]2N)nc1Nc1cccc(-n2nccn2)c1` stands above 39 µg/mL.
Under `Fc1cc(-c2nc(Nc3ccc(F)c(F)c3)c3ccccc3n2)ccn1` stands below 1 µg/mL; under `COC(=O)c1sccc1NC(=O)c1sccc1C`, below 1 µg/mL.
Turning to `Cc1sc2c(c1C)C(c1ccc(Cl)cc1)=N[C@H](CC(=O)NCCCCNC(=O)COc1cccc3c1C(=O)N([C@H]1CCC(=O)NC1=O)C3=O)c1nnc(C)n1-2`, the solubility (kinetic) amounted to 63.8 µg/mL (≈ 81.2 µM).
Under `CCOc1cc(CNc2ccc(O)cc2)ccc1OCc1ccc(Cl)cc1` stands 4.36 µg/mL (≈ 11.4 µM).
Under `Cc1cc(C)nc(NC(=S)N2CCN(c3cccc([N+](=O)[O-])c3)CC2)c1` stands 4.04 µg/mL (≈ 10.9 µM).
